How the values were obtained:
[1] = biological target: T1, Muscarinic acetylcholine receptor M1 (Homo sapiens) (UniProt P11229); assay: Ratio of binding affinities at human cloned Muscarinic acetylcholine receptor M1 and human cloned Muscarinic acetylcholine receptor M2.
T1 sequence (whole entry): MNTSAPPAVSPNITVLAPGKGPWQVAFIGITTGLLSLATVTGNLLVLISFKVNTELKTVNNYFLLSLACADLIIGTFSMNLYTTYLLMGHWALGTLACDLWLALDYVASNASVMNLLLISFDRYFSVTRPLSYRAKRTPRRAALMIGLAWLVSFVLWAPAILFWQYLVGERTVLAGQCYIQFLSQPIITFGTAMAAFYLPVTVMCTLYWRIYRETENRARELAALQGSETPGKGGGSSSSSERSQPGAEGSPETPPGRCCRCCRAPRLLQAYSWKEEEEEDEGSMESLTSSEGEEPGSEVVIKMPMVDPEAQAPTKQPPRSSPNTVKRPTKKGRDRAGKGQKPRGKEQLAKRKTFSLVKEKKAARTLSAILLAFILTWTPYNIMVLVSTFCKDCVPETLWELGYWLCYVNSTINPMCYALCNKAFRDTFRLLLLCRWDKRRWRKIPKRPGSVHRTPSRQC

[2] = biological target: T2, Muscarinic acetylcholine receptor M2 (Homo sapiens, UniProt P08172); assay: Binding affinity against human cloned Muscarinic acetylcholine receptor M2.
T2 sequence (P08172 whole entry): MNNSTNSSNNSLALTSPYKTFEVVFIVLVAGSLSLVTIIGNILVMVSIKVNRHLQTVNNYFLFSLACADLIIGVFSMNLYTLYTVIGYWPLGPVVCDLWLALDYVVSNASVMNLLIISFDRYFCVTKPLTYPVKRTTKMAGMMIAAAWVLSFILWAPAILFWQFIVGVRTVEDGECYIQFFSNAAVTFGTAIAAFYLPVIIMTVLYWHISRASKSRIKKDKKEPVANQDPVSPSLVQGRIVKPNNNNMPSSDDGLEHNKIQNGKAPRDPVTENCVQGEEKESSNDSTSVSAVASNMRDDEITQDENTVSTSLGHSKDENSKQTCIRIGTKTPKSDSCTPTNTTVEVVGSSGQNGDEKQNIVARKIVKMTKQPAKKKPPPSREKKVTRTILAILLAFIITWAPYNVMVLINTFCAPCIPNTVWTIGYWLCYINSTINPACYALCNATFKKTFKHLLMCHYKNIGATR

[3] = biological target: T2, Muscarinic acetylcholine receptor M2; assay: Compound was tested for its binding affinity against cloned human Muscarinic acetylcholine receptor M2

Row | SMILES | Ratio [1] | Ki [2] | Ki [3]
1 | COc1ccc(S(=O)(=O)c2ccc(C(C#N)N3CCN(C4CCCCC4)C[C@@H]3C)cc2)cc1 (stereo not given in full) | 5 | 16 nM | 
2 | COc1ccc(S(=O)(=O)c2ccc(C(C#N)N3CCN(C4CCCCC4)C[C@H]3C)cc2)cc1 (stereo not given in full) | 36 |  | 0.16 nM
3 | COc1ccc(S(=O)(=O)c2ccc([C@@H](C)N3CCN(C4CCCCC4)[C@H](C)C3)cc2)cc1 | 10 | 0.14 nM | 
4 | CCCCS(=O)(=O)N1CCC(N2CCN([C@@H](C)c3ccc(S(=O)(=O)c4ccc5c(c4)OCO5)cc3)[C@H](C)C2)CC1 | 198 | 0.2 nM | 
5 | CCNC(=O)N1CCC(N2CCN([C@@H](C)c3ccc(S(=O)(=O)c4ccc5c(c4)OCO5)cc3)[C@H](C)C2)CC1 | 10 | 2.5 nM | 
6 | COc1ccc(S(=O)(=O)c2ccc(C(C)N3CCN(C4CCCCC4)CC3)cc2)cc1 (stereo not given) | 10 |  | 
7 | COc1ccc(S(=O)(=O)c2ccc(CN3CCN(C4CCCCC4)C[C@H]3C)cc2)cc1 | 23 | 0.3 nM | 
8 | C[C@@H]1CN(C2CCN(C(=O)c3ccccc3)CC2)CCN1[C@@H](C)c1ccc(S(=O)(=O)c2ccc3c(c2)OCO3)cc1 | 32 | 0.9 nM | 
9 | C[C@@H]1CN(C2CCCCC2)CCN1[C@H](C)c1ccc(S(=O)(=O)c2ccc3c(c2)OCO3)cc1 | 30 | 0.03 nM | 

Second part, the compound after the results:

Row | Ratio [1] | Ki [2] | Ki [3] | SMILES
10 | 30 | 0.15 nM |  | COc1ccc(S(=O)(=O)c2ccc([C@@H](C)N3CCN(C4CCCCC4)C[C@H]3C)cc2)cc1
11 | 281 | 0.2 nM |  | CCCS(=O)(=O)N1CCC(N2CCN([C@@H](C)c3ccc(S(=O)(=O)c4ccc5c(c4)OCO5)cc3)[C@H](C)C2)CC1
12 | 109 | 0.7 nM |  | CCS(=O)(=O)N1CCC(N2CCN([C@@H](C)c3ccc(S(=O)(=O)c4ccc5c(c4)OCO5)cc3)[C@H](C)C2)CC1
13 | 40 | 0.8 nM |  | C[C@@H]1CN(C2CCN(S(=O)(=O)c3ccccc3)CC2)CCN1[C@@H](C)c1ccc(S(=O)(=O)c2ccc3c(c2)OCO3)cc1
14 | 15 | 1.3 nM |  | CCCCC(=O)N1CCC(N2CCN([C@@H](C)c3ccc(S(=O)(=O)c4ccc5c(c4)OCO5)cc3)[C@H](C)C2)CC1
15 | 61 | 0.03 nM |  | C[C@@H]1CN(C2CCCCC2)CCN1[C@@H](C)c1ccc(S(=O)(=O)c2ccc3c(c2)OCO3)cc1
16 | 10 | 0.04 nM |  | COc1ccc(S(=O)(=O)c2ccc([C@@H](C)N3CCN(C4CCCCC4)[C@@H](C)C3)cc2)cc1
17 | 4 | 9 nM |  | C[C@@H]1CN(C2CCNCC2)CCN1[C@@H](C)c1ccc(S(=O)(=O)c2ccc3c(c2)OCO3)cc1
18 | 44 | 0.3 nM |  | COc1ccc(S(=O)(=O)c2ccc([C@H](C)N3CCN(C4CCCCC4)C[C@H]3C)cc2)cc1

Source: ChEMBL document CHEMBL1135227, “Substituted 2-(R)-methyl piperazines as muscarinic M(2) selective ligands” (Bioorg Med Chem Lett, 2002)
